Data on three compounds can be found in US7115721B2, “Microorganism, its product and utilization thereof” (Astellas Pharma Inc., priority 2002, dated 2006).

SMILES strings stand for the structures. Converted amounts (≈) assume the structure as drawn. Like-named read-outs stand apart in the source and are kept apart here.

Series [1] relates to melanin pigmentation of skin after exposure to sunlight. Put plainly: Whitening effect on skin of subjects exposed to sunlight. The note with it: for Whitening effect: applied morning and evening over four weeks, 20 subjects. The format is in vivo, human. On the procedure: The whitening effect of the compound (I) of the present invention was measured according to the following method. 20 subjects were exposed to sunlight for […] from 11:00 a.m. to 1:00 p.m. over two days in summer. Five days after the exposure to sunlight, a water phase and an alcohol phase having compositions respectively shown in FIG. 5 and FIG. 6 were mixed and dissolved, and the solution was applied to the skin on the medial side of the upper arm of each exposed subject once for every morning and evening over four weeks. [table] [table] After four weeks, the whitening effect was judged for each subject. The effect was judged according to the following standards.

In series [2] the target is T1, tyrosinase originating from B16 melanoma (Mus musculus, UniProt P11344).
T1 construct: The supernatant liquid was collected and preserved in ice until the time it was used (crude enzyme solution); endogenous in cells; host or cells: B16 melanoma cells, homogenate supernatant (crude enzyme solution)
T1 sequence (P11344 19-533): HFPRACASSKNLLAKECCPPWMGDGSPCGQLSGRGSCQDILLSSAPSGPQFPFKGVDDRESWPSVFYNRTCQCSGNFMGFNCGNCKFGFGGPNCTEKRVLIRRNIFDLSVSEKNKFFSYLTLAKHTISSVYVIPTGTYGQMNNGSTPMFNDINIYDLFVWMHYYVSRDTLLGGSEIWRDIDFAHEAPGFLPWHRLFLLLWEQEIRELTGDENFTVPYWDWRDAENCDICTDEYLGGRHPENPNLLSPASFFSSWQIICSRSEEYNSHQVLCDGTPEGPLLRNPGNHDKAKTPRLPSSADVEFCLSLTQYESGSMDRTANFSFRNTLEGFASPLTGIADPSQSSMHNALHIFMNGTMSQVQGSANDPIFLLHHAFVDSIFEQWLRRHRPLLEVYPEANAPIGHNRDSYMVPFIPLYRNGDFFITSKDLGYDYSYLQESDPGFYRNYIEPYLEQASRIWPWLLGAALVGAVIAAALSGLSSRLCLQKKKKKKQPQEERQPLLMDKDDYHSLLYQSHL
Put plainly: Inhibitory activity to tyrosinase originating from B16 melanoma. The series is classed as biochemical. The conditions noted are these: crude enzyme solution, L-dopa substrate, pH 6.8, 25° C., two hours. On the procedure: Inhibitory Activity to Tyrosinase Originating from B16 Melanoma
(§1) About 2.0×10^5/ampoule B16 melanoma cell strain preserved in a frozen state in liquid nitrogen was dissolved in a water bath at 37° C. and immediately suspended in 10 ml of a culture medium. After centrifugation at 800 rpm for five minutes, the supernatant liquid was discarded and the cells were suspended in 10 ml of a fresh culture medium. The suspension was again centrifuged under the same conditions, the supernatant liquid was discarded, and the cells were again suspended in a fresh culture medium.
About 4.0×10^5 cells were seeded in a 75 cm^2 flask. The cells were cultured at 37° C. in a 5% CO2 atmosphere for one week while replacing the medium every 2–3 days. The culture medium in which the cells have grown to bring the medium into a subconfluent state was discarded. The surface of the cultured cells was washed with PBS(−), following which the cells were stripped using 0.25% trypsin. A medium containing serum was added to terminate the trypsin reaction. After loosening the cells by pipetting, the cell suspension was transferred to a centrifugal tube. […] The number of cells was counted using a cytometer. […]
L-dopa was adjusted to a concentration of 0.8 mg/ml with the 0.05 M phosphate buffer (pH 6.8). […] Then, the absorption at 475 nm was measured.

For series [3], the system named is B16 melanoma (B-16/2D2 cells). Put plainly: Inhibitory activity to melanogenesis of B16 melanoma (extracellular and intracellular melanin, amount of proteins). The series is classed as cell-based. The note with it: for IC50: Mus musculus, B16, 120 h. On the procedure: Inhibitory Activity to Melanogenesis of B16 Melanoma
as §1
About 4.0×10^5 cells were seeded in a 75 cm^2 flask. The cells were cultured at 37° C. in a 5% CO2 atmosphere for one week while replacing the medium every 2–3 days. The culture medium in which the cells have grown to bring the medium into a subconfluent state was discarded. The surface of the cultured cells was washed with PBS(−), following which the cells were stripped using 0.25% trypsin. A medium containing serum was added to terminate the trypsin reaction. After loosening the cells by pipetting, the cell suspension was transferred to a centrifugal tube. After centrifugation at 800 rpm for five minutes, the supernatant liquid was discarded and the cells were suspended in a fresh culture medium (not containing phenol red). The number of cells was counted using a cytometer.
The cell suspension was diluted with a medium (not containing phenol red) to make the cell concentration 2×10^5 cells/ml. The resulting suspension was seeded in a 96-well plate in an amount of 100 μl/well. The cells were incubated at 37° C. in a 5% CO2 atmosphere for one day. Solutions of the compound (I) of the present invention at various concentrations were prepared in a medium (not containing phenol red). The resulting solutions were added to a 96-well plate in an amount of 100 μl/well. The cells were incubated at 37° C. in a 5% CO2 atmosphere for five days and evaluated according to the following method.
1. Amount of Extracellular Melanin
The culture medium was transferred to an assay plate in an amount of 150 μl/well while taking care so that foam was not produced to measure OD450 using a microplate reader.
2. Amount of Intracellular Melanin
The plate containing the cells was inverted to discard the remaining culture medium. 0.1 N NaOH-0.1% Triton X-100 was added in an amount of 150 μl/well to dissolve the cells by pipetting. The culture medium was transferred to an assay plate in an amount of 100 μl/well to measure OD450 using a microplate reader.
Distilled water was added to the assay plate in an amount of 156 μl/well. Then, 4 μl/well of the cell solution remaining after measuring the amount of intracellular melanin was added. Next, 40 μl/well of a Bio-rad protein assay die solution was added, followed by shaking for two minutes. After allowing to stand for five minutes, OD590 was measured using a microplate reader.

In series [4] the target is Tyrosinase originating from mushroom. Briefly: Inhibitory activity to tyrosinase originating from mushroom. The format is biochemical. The conditions noted are these: L-dopa substrate, pH 6.8, 25° C., 10 minutes. How it is done:
Inhibitory Activity to Tyrosinase Originating from Mushroom Tyrosinase originating from mushroom (Sigma company) was dissolved in a 0.05 M phosphate buffer (pH 6.8) to a concentration of 20 U/ml. L-dopa was adjusted to a concentration of 0.3 mg/ml with a 0.05 M phosphate buffer (pH 6.8). A 96-well plate was charged with 30 μl of the L-dopa solution and 30 μl of solutions of the compound (I) of the present invention at various concentrations, immediately followed by mixing with 30 μl of the tyrosinase solution originating from mushroom. After incubation at 25° C. for 10 minutes, the absorbance at 450 nm was measured using a microplate reader.

Setting [5] is: concentration in which whitening actions were clearly exhibited.

As to `Oc1ccc(O)cc1` [Hydroquinone, reference compound], the Whitening effect entry in series [1] (1.0 wt % test agent) is “Good (50–80% of subjects exhibited a complete response or partial response)”.

Turning to `[C-]#[N+]/C=C/c1ccc(O[C@@H]2O[C@@H](C)[C@H](O)[C@@H](O)[C@H]2O)cc1` [Compound (I), (E)-4-(2-isocyanovinyl)phenyl α-L-rhamnopyranoside], the IC50 in series [2] was 1.85 nM; in series [3] (read-out: IC50 Extracellular melanogenesis), 0.052 µg/mL (≈ 0.179 µM); in series [3] (read-out: IC50 Intracellular melanogenesis) it was 0.074 µg/mL (≈ 0.254 µM); in series [3] (read-out: IC50 Protein synthesis), 0.9 µg/mL (≈ 3.09 µM). Besides, in series [3] (setting [5]), the “Effects on the amount of proteins in the cells” value was “nor were there any effects”. In addition, the “Effects on the number of grown cells” value in series [3] (setting [5]) is “nor were there any effects”. Moreover, the “Morphological changes in the cells by microscopic inspection” value in series [3] (setting [5]) is on record as “no morphological changes”. For the same compound, the “IC50 Mushroom tyrosinase” value in series [4] is 0.0019 µg/mL (≈ 0.00652 µM). The Whitening effect entry in series [1] (0.1 wt % test agent) and in series [1] (0.3 wt % test agent) was “Good (50–80% of subjects exhibited a complete response or partial response)” throughout. Moreover, the “Abnormalities of the skin (erythema, edema) or side effects” value in series [1] (topical application over four weeks in subjects) is recorded as “neither abnormalities of the skin, such as erythema or edema, nor any side effects”.

As to `O=c1cc(CO)occ1O` [Kojic acid, reference compound], the Whitening effect entry in series [1] (1.0 wt % test agent) was “Fair (30–50% of subjects exhibited a complete response or partial response)”.

Broadly, the IC50 is the concentration that inhibits the measured activity by half.
